In PubChem BioAssay (NCI):
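Cultured in 96-well plates, cells were exposed to test compound for 48 hours across five concentrations. Definition used: TGI = concentration required for complete inhibition of growth.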

Experiments:
Assay in all cases: NCI tumour cell line growth inhibition, 48 h
LXFL 529 NSCLC = system: LXFL 529 NSCLC
K-562 leukemia = system: K-562 leukemia
SK-MEL-28 melanoma = system: SK-MEL-28 melanoma
SK-OV-3 ovarian = system: SK-OV-3 ovarian
OVCAR-8 ovarian = system: OVCAR-8 ovarian
786-0 renal = system: 786-0 renal
MOLT-4 leukemia = system: MOLT-4 leukemia
UO-31 renal = system: UO-31 renal
SN12C renal = system: SN12C renal
OVCAR-4 ovarian = system: OVCAR-4 ovarian
M14 melanoma = system: M14 melanoma
SNB-78 CNS = system: SNB-78 CNS
U251 CNS = system: U251 CNS
RXF 393 renal = system: RXF 393 renal
SW-620 colon = system: SW-620 colon
T-47D breast = system: T-47D breast
HOP-62 NSCLC = system: HOP-62 NSCLC
NCI-H460 lung = system: NCI-H460 lung
SF-295 CNS = system: SF-295 CNS
A498 renal = system: A498 renal
BT-549 breast = system: BT-549 breast
DU-145 prostate = system: DU-145 prostate
DLD-1 colon = system: DLD-1 colon
XF 498 CNS = system: XF 498 CNS
EKVX NSCLC = system: EKVX NSCLC
LOX IMVI melanoma = system: LOX IMVI melanoma
CCRF-CEM leukemia = system: CCRF-CEM leukemia
SF-268 CNS = system: SF-268 CNS
KM12 colon = system: KM12 colon
MCF7 breast = system: MCF7 breast
HCC-2998 colon = system: HCC-2998 colon
HS 578T breast = system: HS 578T breast
UACC-257 melanoma = system: UACC-257 melanoma
MDA-MB-435 = system: MDA-MB-435
SNB-19 CNS = system: SNB-19 CNS
NCI-H23 lung = system: NCI-H23 lung
SK-MEL-2 melanoma = system: SK-MEL-2 melanoma
HCT-116 colon = system: HCT-116 colon
HT29 colon = system: HT29 colon
OVCAR-5 ovarian = system: OVCAR-5 ovarian
TK-10 renal = system: TK-10 renal
HL-60(TB) leukemia = system: HL-60(TB) leukemia
SR leukemia = system: SR leukemia
A549 NSCLC = system: A549 NSCLC
HCT-15 colon = system: HCT-15 colon
MDA-N = system: MDA-N
UACC-62 melanoma = system: UACC-62 melanoma
MALME-3M melanoma = system: MALME-3M melanoma
DMS 114 small cell lung = system: DMS 114 small cell lung
CAKI-1 renal = system: CAKI-1 renal
SK-MEL-5 melanoma = system: SK-MEL-5 melanoma
OVCAR-3 ovarian = system: OVCAR-3 ovarian
SF-539 CNS = system: SF-539 CNS
PC-3 prostate = system: PC-3 prostate
M19-MEL melanoma = system: M19-MEL melanoma
NCI-H226 lung = system: NCI-H226 lung
ACHN renal = system: ACHN renal
COLO 205 colon = system: COLO 205 colon
KM20L2 colon = system: KM20L2 colon
MDA-MB-231 breast = system: MDA-MB-231 breast
SNB-75 CNS = system: SNB-75 CNS
HOP-18 NSCLC = system: HOP-18 NSCLC
NCI-H522 lung = system: NCI-H522 lung
IGROV1 ovarian = system: IGROV1 ovarian
HOP-92 NSCLC = system: HOP-92 NSCLC
NCI/ADR-RES ovarian = system: NCI/ADR-RES ovarian
DMS 273 small cell lung = system: DMS 273 small cell lung

Question: Which results are given for `O=C1C=CC(=O)c2c(O)ccc(O)c21`?
Answer: TGI (LXFL 529 NSCLC): 1.64 µM; TGI (K-562 leukemia): > 25 µM; TGI (SK-MEL-28 melanoma): 2.76 µM; TGI (SK-OV-3 ovarian): 27.5 µM; TGI (OVCAR-8 ovarian): 2.05 µM; TGI (786-0 renal): 2.55 µM; TGI (MOLT-4 leukemia): 4.45 µM; TGI (UO-31 renal): 4.69 µM; TGI (SN12C renal): 3.08 µM; TGI (OVCAR-4 ovarian): 4.97 µM; TGI (M14 melanoma): 1.32 µM; TGI (SNB-78 CNS): 6.37 µM; TGI (U251 CNS): 14.8 µM; TGI (RXF 393 renal): 2.02 µM; TGI (SW-620 colon): 1.1 µM; TGI (T-47D breast): 4.61 µM; TGI (HOP-62 NSCLC): 19.3 µM; TGI (NCI-H460 lung): 9.79 µM; TGI (SF-295 CNS): 16.1 µM; TGI (A498 renal): 7.78 µM; TGI (BT-549 breast): 4.8 µM; TGI (DU-145 prostate): 28 µM; TGI (DLD-1 colon): 0.891 µM; TGI (XF 498 CNS): 3.07 µM; TGI (EKVX NSCLC): 7.4 µM; TGI (LOX IMVI melanoma): 3.8 µM; TGI (CCRF-CEM leukemia): 0.966 µM; TGI (SF-268 CNS): 8.39 µM; TGI (KM12 colon): 13 µM; TGI (MCF7 breast): 6.59 µM; TGI (HCC-2998 colon): 10.5 µM; TGI (HS 578T breast): 6.57 µM; TGI (UACC-257 melanoma): 2.45 µM; TGI (MDA-MB-435): 13.1 µM; TGI (SNB-19 CNS): 16.6 µM; TGI (NCI-H23 lung): 7.39 µM; TGI (SK-MEL-2 melanoma): 17.4 µM; TGI (HCT-116 colon): 2.39 µM; TGI (HT29 colon): 5.68 µM; TGI (OVCAR-5 ovarian): 13.1 µM; TGI (TK-10 renal): 2.75 µM; TGI (HL-60(TB) leukemia): 0.831 µM; TGI (SR leukemia): 1.75 µM; TGI (A549 NSCLC): 33.1 µM; TGI (HCT-15 colon): 1.65 µM; TGI (MDA-N): 8.18 µM; TGI (UACC-62 melanoma): 3.95 µM; TGI (MALME-3M melanoma): 2.39 µM; TGI (DMS 114 small cell lung): 5.27 µM; TGI (CAKI-1 renal): 2.82 µM; TGI (SK-MEL-5 melanoma): 6.08 µM; TGI (OVCAR-3 ovarian): 5.87 µM; TGI (SF-539 CNS): 5.84 µM; TGI (PC-3 prostate): 29.5 µM; TGI (M19-MEL melanoma): 1.49 µM; TGI (NCI-H226 lung): 18.5 µM; TGI (ACHN renal): 2.67 µM; TGI (COLO 205 colon): 1.66 µM; TGI (KM20L2 colon): 4.97 µM; TGI (MDA-MB-231 breast): 6.64 µM; TGI (SNB-75 CNS): 6.98 µM; TGI (HOP-18 NSCLC): 2.17 µM; TGI (NCI-H522 lung): 1.16 µM; TGI (IGROV1 ovarian): 15.5 µM; TGI (HOP-92 NSCLC): 3.21 µM; TGI (NCI/ADR-RES ovarian): 3.72 µM; TGI (DMS 273 small cell lung): 7.55 µM
